Reference: ChEMBL document CHEMBL5131536, “Novel Quinoline Compounds as EZH2 Inhibitors for Treating Cancer” (ACS Med Chem Lett, 2022)

molecular target: Histone-lysine N-methyltransferase EZH2 (Homo sapiens, UniProt Q15910); assay: Inhibition of EZH2 in human G-401 cells assessed as reduction in H3K27 methylation incubated for 48 hrs by ELISA; assay type: cell-based
Sequence (Q15910 whole entry): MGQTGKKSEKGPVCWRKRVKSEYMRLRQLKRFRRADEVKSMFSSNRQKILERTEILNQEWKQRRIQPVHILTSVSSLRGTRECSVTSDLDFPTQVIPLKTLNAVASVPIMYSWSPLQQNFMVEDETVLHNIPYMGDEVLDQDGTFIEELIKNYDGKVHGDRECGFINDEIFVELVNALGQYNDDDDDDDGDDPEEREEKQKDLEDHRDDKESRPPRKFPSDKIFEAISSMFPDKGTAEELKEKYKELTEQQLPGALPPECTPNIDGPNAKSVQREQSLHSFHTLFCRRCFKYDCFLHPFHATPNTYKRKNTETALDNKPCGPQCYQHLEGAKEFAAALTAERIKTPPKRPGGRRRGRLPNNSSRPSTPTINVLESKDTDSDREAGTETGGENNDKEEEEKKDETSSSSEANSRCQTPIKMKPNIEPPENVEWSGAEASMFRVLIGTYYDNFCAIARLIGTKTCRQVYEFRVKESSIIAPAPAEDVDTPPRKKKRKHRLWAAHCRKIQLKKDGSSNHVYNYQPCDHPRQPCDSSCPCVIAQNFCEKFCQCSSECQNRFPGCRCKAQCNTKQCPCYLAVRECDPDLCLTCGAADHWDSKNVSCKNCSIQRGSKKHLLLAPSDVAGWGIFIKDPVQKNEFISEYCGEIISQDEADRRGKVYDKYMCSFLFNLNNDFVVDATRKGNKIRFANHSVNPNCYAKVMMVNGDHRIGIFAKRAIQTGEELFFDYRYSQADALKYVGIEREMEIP

| SMILES | IC50 [µM] |
| --- | --- |
| Cc1ccc2ccc(N[C@H]3CC[C@H](CNc4ncc(CC(=O)NC5COC5)cn4)CC3)nc2c1Cl | < 0.01 |
| Cc1ccc2ccc(N[C@H]3CC[C@H](CNc4ncc(C(CO)C(=O)NC5COC5)cn4)CC3)nc2c1Cl (stereo partly specified) | < 0.01 |
| Cc1ccc2ccc(N[C@H]3CC[C@H](CNc4ncc(C(C#N)C(=O)NC5COC5)cn4)CC3)nc2c1Cl (stereo partly specified) | < 0.01 |

More lines, now with the values ahead:

| IC50 [µM] | SMILES |
| --- | --- |
| < 0.01 | Cc1ccc2ccc(N[C@H]3CC[C@H](CNc4ccc(CC(=O)NC5COC5)cn4)CC3)nc2c1Cl |
| < 0.01 | Cc1ccc2ccc(N[C@H]3CC[C@H](CNc4ncc(C(O)C(=O)NC5COC5)cn4)CC3)nc2c1Cl (stereo partly specified) |
| < 0.01 | Cc1ccc2ccc(N[C@H]3CC[C@H](CNc4ncc(C(F)(F)C(=O)NC5COC5)cn4)CC3)nc2c1Cl |
